From patent publication US20230159453A1 (COCRYSTAL PHARMA, INC., priority 2020, published 2023)

What follows are molecules tested against SARS2 protease (Severe acute respiratory syndrome coronavirus 2, UniProt P0DTD1) (assay: SARS-CoV-2 protease inhibition assay (SARS2 FRET protease assay)). Conditions: SARS-CoV-2 protease 25 nM, FRET, peptide substrate 1.3 μM, 30 minutes at 30° C., compounds 20 μM to 1.0 nM; read-out: IC50.
Assay type: biochemical

Row | SMILES | IC50
1 | CC1(C)CC(C[C@@H](C=O)NC(=O)[C@H](CC2CCCCC2)NC(=O)OC(Cc2cccc(Cl)c2)c2cccc(Cl)c2)C(=O)N1 (stereo partly drawn) [Compound C162, 1,2-Bis(3-Chlorophenyl)ethyl ((2S)-3-cyclohexyl-1-((1-(5,5-dimethyl-2-oxopyrrolidin-3-yl)-3-oxopropan-2-yl)amino)-1-oxopropan-2-yl)carbamate] | 92.2 nM
2 | CC(C)C[C@H](NC(=O)OC(c1ccccc1)C(C)(C)c1cccc(Cl)c1)C(=O)N[C@@H](CC1CC(C)(C)NC1=O)C(=O)C(=O)NC1CC1 (stereo partly drawn) [Compound C163, 2-(3-Chlorophenyl)-2-methyl-1-phenylpropyl ((2S)-1-((4-(cyclopropylamino)-1-(5,5-dimethyl-2-oxopyrrolidin-3-yl)-3,4-dioxobutan-2-yl)amino)-4-methyl-1-oxopentan-2-yl) carbamate] | 1810 nM
3 | CCCC[C@H](NC(=O)OC(c1ccccc1)C(C)(C)c1cccc(Cl)c1)C(=O)N[C@@H](CC1CCNC1=O)C(=O)C(N)=O (stereo partly drawn) [Compound C164, 2-(3-Chlorophenyl)-2-methyl-1-phenylpropyl ((S)-1-(((S)-4-amino-3,4-dioxo-1-((S)-2-oxopyrrolidin-3-yl)butan-2-yl)amino)-1-oxohexan-2-yl) carbamate] | 144 nM
4 | O=C[C@H](CC1CC2(CCCC2)NC1=O)NC(=O)[C@H](CC1CCCCC1)NC(=O)OC1CCCC1Cc1cccc(Cl)c1 (stereo partly drawn) [Compound C165, 2-(3-chlorobenzyl)cyclopentyl ((2S)-3-cyclohexyl-1-oxo-1-((1-oxo-3-(2-oxo-1-azaspiro[4.4]nonan-3-yl)propan-2-yl)amino)propan-2-yl)carbamate] | 106 nM
5 | CC(C)C[C@H](NC(=O)OC(c1ccccc1)C(C)(C)c1cccc(Cl)c1)C(=O)N[C@@H](C[C@@H]1CCNC1=O)C(=O)C(=O)NC1CC1 (stereo partly drawn) [Compound C166, 2-(3-Chlorophenyl)-2-methyl-1-phenylpropyl ((S)-1-(((S)-4-(cyclopropylamino)-3,4-dioxo-1-((S)-2-oxopyrrolidin-3-yl)butan-2-yl)amino)-4-methyl-1-oxopentan-2-yl)carbamate] | 14 nM
6 | CC1(C)CC(C[C@H](NC(=O)[C@H](CC2CCCCC2)NC(=O)OC2CCCC2Cc2cccc(Cl)c2)C(=O)C(=O)NC2CC2)C(=O)N1 (stereo partly drawn) [Compound C167, 2-(3-Chlorobenzyl)cyclopentyl ((2S)-3-cyclohexyl-1-((4-(cyclopropylamino)-1-(5,5-dimethyl-2-oxopyrrolidin-3-yl)-3,4-dioxobutan-2-yl)amino)-1-oxopropan-2-yl)carbamate] | 2050 nM
7 | O=C(N[C@@H](CC1CCCCC1)C(=O)N[C@@H](CC1CC2(CCCCC2)NC1=O)C(=O)CO)OCc1cccc(Cl)c1 (stereo partly drawn) [Compound C168, 3-Chlorobenzyl ((2S)-3-cyclohexyl-1-(((2S)-4-hydroxy-3-oxo-1-(2-oxo-1-azaspiro[4.5]decan-3-yl)butan-2-yl)amino)-1-oxopropan-2-yl)carbamate] | 5440 nM
8 | CC(C)C[C@H](NC(=O)OC1(Cc2cccc(Cl)c2)CCC1)C(=O)N[C@@H](CC1CC2(CCOCC2)NC1=O)C(=O)C(=O)NC1CC1 (stereo partly drawn) [Compound C169, 1-(3-chlorobenzyl)cyclobutyl ((2S)-1-((4-(cyclopropylamino)-3,4-dioxo-1-(2-oxo-8-oxa-1-azaspiro[4.5]decan-3-yl)butan-2-yl)amino)-4-methyl-1-oxopentan-2-yl)carbamate] | 5990 nM
9 | CS(=O)(=O)N1CCC2(CC1)CC(C[C@H](NC(=O)[C@H](CC1CCCCC1)NC(=O)OCc1cccc(Cl)c1)C(=O)C(=O)NC1CC1)C(=O)N2 (stereo partly drawn) [Compound C170, 3-Chlorobenzyl ((2S)-3-cyclohexyl-1-(((2S)-4-(cyclopropylamino)-1-(8-(methylsulfonyl)-2-oxo-1,8-diazaspiro[4.5]decan-3-yl)-3,4-dioxobutan-2-yl)amino)-1-oxopropan-2-yl)carbamate] | 1840 nM
